Data as given in patent US9212204B2, “Treatment of rett syndrome using glycyl-L-2-methylprolyl-L-glutamic acid” (priority 2011, dated 2015).
Non-standard residues stand in square brackets, D forms with d. Residues, ends and D or L forms follow the SMILES beside them. αMeP = C[C@@]1(C(=O)O)CCCN1

Experiments:
[1] = Pharmacokinetics after intravenous bolus injection; type: in vivo, rat
Method: Adult male Wistar rats weighing between 180 and 240 g were used to determine the pharmacokinetics of GPE and […]. To facilitate intravenous bolus injections and blood sampling, all rats were surgically implanted with an indwelling jugular venous cannula under halothane anesthesia three days before the experiment. Groups of six rats were given a single intravenous bolus injection of either 30 mg/kg GPE or 10 mg/kg […] dissolved in 0.1M succinate buffer (pH 6.5). […] The samples were centrifuged at 3000 g for 15 min at 4° C. and the plasma removed and stored at -80° C. until extraction and assay by either radioimmunoassay (“RIA”) or reverse phase HPLC. The RIA and HPLC methods used were conventional. […] The k and half-life (t1/2) were calculated from the slope of the linear regression line in the elimination phase of the semi-logarithmic plot of plasma concentration versus time as: Log. C=-kt/2.3+log C0. Results were expressed as mean±standard error.

[2] = tested on: Tbx1 heterozygous, Cntnap2 knockout, Slc9a6 knockout and fmr1 knockout mice; experiment: Genetic mouse models of ASD and Fragile X Syndrome; type: in vivo; conditions: 20 mg/kg/day i.p.
Method: Effects of G-2-MePE are further tested in the following genetic models of ASD: the Tbx1 heterozygous mouse, the Cntnap2 knockout mouse and the Sic9a6 knockout mouse. G-2-MePE is also tested in the fmr1 knockout mouse model of Fragile X Syndrome.
Animals in each of the above models are generated in accordance with the methodology described in the cited literature. Wild type equivalents are also obtained for each genetic model. Animals in each model are divided into three groups (n=10 to n=20): placebo treated wild type mice, mutant G-2-MePE-treated group and mutant placebo-treated control group.
The treatments are administered intraperitoneally: placebo (saline) or 20 mg/kg/day of G-2-MePE.

[3] = tested on: hippocampal slices of heterozygous Shank3-deficient mice; experiment: Shank3-deficient mouse model, hippocampal slice electrophysiology; type: in vivo; conditions: 15 or 60 mg/kg oral b.i.d. for 14 days
Method: 1 to 3 month old wild type and heterozygous Shank3-deficient mice are divided into 4 treatment groups: placebo treated wild-type, placebo treated Shank3-deficient group and two Shank3-deficient G-2-MePE treated groups. The animals are given placebo (water) or G-2-MePE formulated in water administered orally, b.i.d for 14 days. G-2-MePE is administered at two doses: 15 or 60 mg/kg.
Post-mortem, acute hippocampal slices (350 μm) are prepared from mice using a tissue chopper. Slices are maintained and experiments are conducted at 32° C. Slices are perfused with Ringer's solution containing (in mM): NaCl, 125.0; KCl, 2.5; MgSO4, 1.3; NaH2PO4, 1.0; NaHCO3, 26.2; CaCl2, 2.5; glucose, 11.0. The Ringer's solution is bubbled with 95% O2/5% CO2, at 32° C., during extracellular recordings (electrode solution: 3 M NaCl). Slices are maintained for 1 hr prior to establishment of a baseline of field excitatory postsynaptic potentials (fEPSPs) recorded from stratum radiatum in area CA1, evoked by stimulation of the Schaffer collateral-commissural afferents (100 μs pulses every 30 s) with bipolar tungsten electrodes placed into area CA3. Test stimulus intensity is adjusted to obtain fEPSPs with amplitudes that are one-half of the maximal response. The EPSP initial slope (mV/ms) is determined from the average waveform of four consecutive responses. Input-output (I/O) curves are generated by plotting the fEPSP slope versus fiber volley amplitude in low-Mg^2+ (0.1 mM) solution. AMPA receptor-mediated and NMDA receptor-mediated I/O relationships are measured in the presence of ionotropic glutamate receptor antagonists: […] APV (50 μM) and 6-cyano-7-nitroquinoxaline-2,3-dione CNQX (100 μM). Paired-pulse responses are measured with interstimulus intervals of 10 to 200 ms, and are expressed as the ratio of the average responses to the second stimulation pulse to the first stimulation pulse. […]

[4] = vs placebo treated Shank3-deficient group

Structure (SMILES): C[C@@]1(C(=O)N[C@@H](CCC(=O)O)C(=O)O)CCCN1C(=O)CN [Example G-2-MePE, Glycyl-L-2-methylprolyl-L-glutamic acid] (H-Gly-[αMeP]-Glu-OH)
- first order rate constant ([1]; 10 mg/kg single i.v. bolus, rat): 0.033 ± 0.001 min⁻¹
- maximal plasma concentration relative to GPE ([1]; G-2-MePE 10 mg/kg vs GPE 30 mg/kg i.v.): about 4.8 times
- t1/2 relative to GPE ([1]; i.v., rat): over 4 times
- measures associated with the ASD phenotype [2]: significantly improves
- AMPA receptor-mediated field potentials [3]: normalizes
- average slope of I/O function [3, 4]: increase
- hippocampal long-term potentiation (LTP) and its maintenance [3, 4]: increased
